One test addresses human plasma kallikrein (Homo sapiens, UniProt P03952). Kind of test: Kallikrein inhibition assay (FLINT) utilizing a quenched AMC peptide substrate Z-Gly-Pro-Arg-AMC. The class given is biochemical. The following applies: kinetic (KIN) reads, read-out: Kallikrein KIN Inh IC50. The essentials:
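Human plasma kallikrein (2 nM final) pre-incubated 30 min with compound (11-point 3-fold series, top 1 μM, 2% DMSO), then 50 μM Z-Gly-Pro-Arg-AMC added. Buffer 50 mM Tris pH 7.5, 100 mM NaCl, 5 mM CaCl2, BSA, CHAPS. AMC fluorescence (340/440 nm) read kinetically over 30 min at room temperature, IC50 by 4-parameter logistic fit.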

The target of the next test is Factor XIa (Homo sapiens, UniProt P03951). The test can be described thus: Factor XIa inhibition assay (FLINT) utilizing a fluorophore-quencher pair peptide substrate 5Fam-[…]-K5Tamra. The class given is biochemical. The following applies: kinetic (KIN) reads; values in nM; read-out: FXIa KIN Inh IC50. In a few lines: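 FXIa was preincubated with compound for 30 min at room temperature in Tris pH 7.5 buffer containing CaCl2, BSA and CHAPS, then reacted with 15 μM quenched 5Fam/Tamra peptide substrate. Fluorescence (485/520 nm) was read kinetically every 5 min for 30 min.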
Factor XIa, sequence (P03951 388-625 limits assumed): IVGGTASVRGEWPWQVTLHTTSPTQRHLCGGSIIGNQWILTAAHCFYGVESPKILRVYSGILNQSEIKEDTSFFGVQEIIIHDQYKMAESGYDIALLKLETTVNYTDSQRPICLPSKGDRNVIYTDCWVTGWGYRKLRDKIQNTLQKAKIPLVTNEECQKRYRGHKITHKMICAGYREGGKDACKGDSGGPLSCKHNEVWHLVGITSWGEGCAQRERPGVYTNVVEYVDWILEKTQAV
Factor XIa, sequence (P03951 19-387 partner limits assumed): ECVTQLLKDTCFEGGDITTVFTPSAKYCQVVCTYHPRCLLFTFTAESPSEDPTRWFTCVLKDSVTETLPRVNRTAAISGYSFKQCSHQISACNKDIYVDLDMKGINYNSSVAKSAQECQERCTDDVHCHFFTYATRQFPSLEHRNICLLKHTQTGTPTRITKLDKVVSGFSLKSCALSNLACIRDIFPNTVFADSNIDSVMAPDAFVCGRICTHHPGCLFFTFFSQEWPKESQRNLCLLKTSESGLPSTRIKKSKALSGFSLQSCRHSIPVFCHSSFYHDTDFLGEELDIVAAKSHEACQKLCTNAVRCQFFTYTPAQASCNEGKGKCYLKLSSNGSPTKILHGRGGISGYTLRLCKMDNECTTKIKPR

Structures are written as SMILES. Where two headings read alike, the source gives them in different places. Bounds are passed on as bounds.

These results are taken from patent US20230097157A1, “Bicyclic Pyridin-2-one and pyrimidin-4-one Derivatives Useful As a Factor XIa Inhibitors” (Janssen Pharmaceutica NV, priority 2021, published 2023).

human plasma kallikrein, sequence (P03952 391-638 limits assumed): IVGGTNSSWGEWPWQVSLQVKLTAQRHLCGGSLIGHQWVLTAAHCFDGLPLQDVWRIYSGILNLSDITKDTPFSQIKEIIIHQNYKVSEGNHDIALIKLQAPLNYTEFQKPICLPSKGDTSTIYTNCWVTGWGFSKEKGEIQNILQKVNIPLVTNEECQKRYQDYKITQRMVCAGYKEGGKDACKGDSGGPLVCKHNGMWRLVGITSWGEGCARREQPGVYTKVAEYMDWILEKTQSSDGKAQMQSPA
human plasma kallikrein, sequence (P03952 20-390 partner limits assumed): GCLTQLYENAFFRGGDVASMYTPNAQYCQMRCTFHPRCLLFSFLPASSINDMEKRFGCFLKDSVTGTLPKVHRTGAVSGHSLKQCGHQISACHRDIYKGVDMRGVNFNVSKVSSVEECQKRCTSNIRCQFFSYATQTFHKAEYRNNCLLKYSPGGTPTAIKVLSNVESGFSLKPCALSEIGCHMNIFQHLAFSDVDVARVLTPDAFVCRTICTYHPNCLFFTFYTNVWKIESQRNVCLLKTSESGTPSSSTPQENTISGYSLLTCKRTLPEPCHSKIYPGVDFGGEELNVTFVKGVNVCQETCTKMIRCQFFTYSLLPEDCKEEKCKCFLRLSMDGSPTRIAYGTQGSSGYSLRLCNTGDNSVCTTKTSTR

As to `O=c1cc(-c2c(-n3cnnn3)ccc(Cl)c2F)cc2n1[C@@H](c1ncc(-c3ccnc(CO)c3F)[nH]1)CC21CC1` (single isomer, unassigned) [Example 8], the IC50 at human plasma kallikrein (unit μM) was above 1 µM; at Factor XIa, above 100 nM.
Take `Nc1ccc(-c2cnc([C@H]3CC4(CC4)c4nc(-c5c(-n6cnnn6)ccc(Cl)c5F)cc(=O)n43)[nH]2)c(F)n1` [Example 133, (R)-6′-(5-(6-Amino-2-fluoropyridin-3-yl)-1H-imidazol-2-yl)-2′-(3-chloro-2-fluoro-6-(1H-tetrazol-1-yl)phenyl)-6′,7′-dihydro-4′H-spiro[cyclopropane-1,8′-pyrrolo[1,2-a]pyrimidin]-4′-one]: the values for the IC50 at human plasma kallikrein (unit μM) and on Factor XIa were 4 µM and 231 nM, respectively.
Take `COC(=O)Nc1ccc(-c2cnc([C@H]3C[C@H](C)c4nc(-c5c(-n6cnnn6)ccc(Cl)c5F)cc(=O)n43)[nH]2)cc1` (stereo in doubt) [Example 124, Methyl (4-(2-((6*R,8*S)-2-(3-Chloro-2-fluoro-6-(1H-tetrazol-1-yl)phenyl)-8-methyl-4-oxo-4,6,7,8-tetrahydropyrrolo[1,2-a]pyrimidin-6-yl)-1H-imidazol-5-yl)phenyl)carbamate]: the IC50 at human plasma kallikrein (values in nM) turned out to be 0.0529 µM; on Factor XIa, 8.3 nM.
In the case of `Nc1ccc(-c2cnc([C@@H]3CC4(CC4)c4nc(-c5c(-n6cnnn6)ccc(Cl)c5F)cc(=O)n43)[nH]2)c(F)n1` [Example 134, (S)-6′-(5-(6-Amino-2-fluoropyridin-3-yl)-1H-imidazol-2-yl)-2′-(3-chloro-2-fluoro-6-(1H-tetrazol-1-yl)phenyl)-6′,7′-dihydro-4′H-spiro[cyclopropane-1,8′-pyrrolo[1,2-a]pyrimidin]-4′-one], the IC50 on human plasma kallikrein (values in nM) worked out at 0.0168 µM; on Factor XIa, 1.2 nM.
For the compound `CC(=O)Nc1ncc(-c2cnc(C3CC4(CC4)c4cc(-c5c(-n6cnnn6)ccc(Cl)c5F)cc(=O)n43)[nH]2)s1` (centres unmarked) [Example 22], the half-maximal inhibitory concentration (IC50) at human plasma kallikrein (values in nM) was found to be 0.294 µM; on Factor XIa, 253 nM.
Taken in the same sequence, the figures for `[2H]C([2H])([2H])OC(=O)Nc1ccc(-c2cnc(C3CC4(CC4)c4nc(-c5c(-n6cnnn6)ccc(Cl)c5F)cc(=O)n43)[nH]2)cc1` (single isomer, unassigned) [Example 71, Methyl-d3 (R*)-(4-(2-(2′-(3-Chloro-2-fluoro-6-(1H-tetrazol-1-yl)phenyl)-4′-oxo-6′,7′-dihydro-4′H-spiro[cyclopropane-1,8′-pyrrolo[1,2-a]pyrimidin]-6′-yl)-1H-imidazol-5-yl)phenyl)carbamate] were 0.736 µM and above 100 nM.
For `C[C@@H]1C[C@H](c2cnc(-c3ccc(N)nc3F)[nH]2)n2c1cc(-c1c(-n3cnnn3)ccc(Cl)c1F)cc2=O` (stereo in doubt) [Example 55, (1R*,3R*)-3-(2-(6-Amino-2-fluoropyridin-3-yl)-1H-imidazol-5-yl)-7-(3-chloro-2-fluoro-6-(1H-tetrazol-1-yl)phenyl)-1-methyl-2,3-dihydroindolizin-5(1H)-one] the same measures were 0.0425 µM and 1.1 nM.
